Laboratory results published in PubChem BioAssay (NCI).
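GI50 marks 50% less growth. TGI marks complete inhibition of growth.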

Tests used:
Assay in all cases: NCI-60 cell line screen, 384-well format
DU-145 prostate = system: DU-145 prostate
TK-10 renal = system: TK-10 renal
NCI-H23 lung = system: NCI-H23 lung
NCI-H460 NSCLC = system: NCI-H460 NSCLC
SNB-75 CNS = system: SNB-75 CNS
HCC-2998 colon = system: HCC-2998 colon
MCF7 breast = system: MCF7 breast
OVCAR-3 ovarian = system: OVCAR-3 ovarian
SW-620 colon = system: SW-620 colon
CCRF-CEM leukemia = system: CCRF-CEM leukemia
KM12 colon = system: KM12 colon
SK-MEL-28 melanoma = system: SK-MEL-28 melanoma
SN12C renal = system: SN12C renal

Cc1ccc(S(=O)(=O)Cc2nc(-c3ccc(C(=O)NCc4cccnc4)cc3)oc2C)cc1
GI50 (DU-145 prostate): 15.9 nM | TGI (DU-145 prostate): 30.8 nM | GI50 (TK-10 renal): 19.1 nM | TGI (TK-10 renal): 35.7 nM | GI50 (NCI-H23 lung): < 10 nM | TGI (NCI-H23 lung): 20.2 nM | GI50 (NCI-H460 NSCLC): 21.6 nM | TGI (NCI-H460 NSCLC): 47.3 nM | GI50 (SNB-75 CNS): 23.9 nM | TGI (SNB-75 CNS): 53.2 nM | GI50 (HCC-2998 colon): < 10 nM | TGI (HCC-2998 colon): < 10 nM | GI50 (MCF7 breast): 14.2 nM | TGI (MCF7 breast): 29.1 nM | GI50 (OVCAR-3 ovarian): < 10 nM | TGI (OVCAR-3 ovarian): < 10 nM | GI50 (SW-620 colon): < 10 nM | TGI (SW-620 colon): < 10 nM | GI50 (CCRF-CEM leukemia): < 10 nM | TGI (CCRF-CEM leukemia): < 10 nM | GI50 (KM12 colon): < 10 nM | TGI (KM12 colon): 11.9 nM | GI50 (SK-MEL-28 melanoma): 17.2 nM | TGI (SK-MEL-28 melanoma): 34.3 nM | GI50 (SN12C renal): < 10 nM | TGI (SN12C renal): < 10 nM
